Like-named read-outs stand apart in the source and are kept apart here.
Key:
Trichophyton rubrum [1] = experiment: MIC/MFC broth microdilution (CLSI); conditions: Trichophyton rubrum
Experimental: (§1) Antifungal susceptibility was determined by broth microdilution according to the CLSI guidelines described in M27-Ed4 ([16]). […] MFC was determined by back-plating drug-treated cultures from MIC broths onto SDA plates. The MFC was defined as the lowest concentration from which no colonies could be cultured.

eight fungal species [2] = experiment: checkerboard interaction with azoles, summary across the eight species; assay type: cell-based; conditions: geometric mean MIC in combination with azoles
Source text: Synergy between lipophilic FPPS inhibitors and azole antifungals was investigated by determining the fractional inhibitory concentration index (FICI) (Fig. 2; Table S1 Fig. S1) ([17]). […]. Derivatives PLA9 and 11, and PDA9, 11, and 12 antagonized azoles in C. albicans, C. neoformans, and C. deuterogattii, yet were largely synergistic in C. glabrata and S. cerevisiae. […].

Aspergillus flavus [3] = experiment: MIC/MFC broth microdilution (CLSI); conditions: ATCC204304
Experimental: as §1

HEK-293T cells = experiment: MTT reduction cytotoxicity assay; assay type: cell-based; conditions: Homo sapiens, HEK-293T, 72 h, HEK-293T, MTT, 72 h; read-out: HEK IC50
Saccharomyces cerevisiae [4] = experiment: MIC/MFC broth microdilution (CLSI); assay type: cell-based; conditions: Saccharomyces cerevisiae S288c
Experimental: as §1

Cryptococcus neoformans [5] = experiment: MIC/MFC broth microdilution (CLSI); conditions: Cryptococcus neoformans;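 also: susceptibility testing followed the CLSI M27-Ed4 broth microdilution document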
Experimental: as §1

Aspergillus fumigatus [6] = experiment: checkerboard drug interaction (FICI, MICc);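 as to all read-outs here: simplified diagonal checkerboard screen pairing antifungals with FPPS inhibitors against Aspergillus fumigatus, with FICI calculated under the Loewe additivity model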; assay type: cell-based; conditions: A. fumigatus; for INH FD (MIC-MICc fold decrease): fold decrease of inhibitor MIC
Experimental: (§2) Drug interactions between antifungals and FPPS inhibitors were investigated using a simplified checkerboard diagonal screening method ([45]). […] FICIs were determined according to the Loewe additivity model ([17]).

Aspergillus flavus [7] = experiment: checkerboard drug interaction (FICI, MICc);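 also: simplified diagonal checkerboard screen pairing azole antifungals with FPPS inhibitors, FICI calculated under the Loewe additivity model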; assay type: cell-based; set-up: INH MICc (KET:INH) / INH MICc (FLC:INH): unit not given beside the values; conditions: A. flavus
[8] = test system: Cryptococcus deuterogattii; experiment: checkerboard drug interaction (FICI, MICc);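 as to all read-outs here: simplified diagonal checkerboard screen pairing antifungal drugs with FPPS inhibitors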; assay type: cell-based; conditions: C. deuterogattii; for INH FD (MIC-MICc fold decrease): fold decrease of inhibitor MIC
Experimental: as §2

Candida albicans [9] = experiment: MIC/MFC broth microdilution (CLSI); assay type: cell-based; conditions: Candida albicans SC5314
Experimental: as §1

Aspergillus fumigatus [10] = experiment: MIC/MFC broth microdilution (CLSI); conditions: ATCC204305
Experimental: as §1

eight fungal species [11] = experiment: MIC/MFC summary across the eight fungal species of Table 1; assay type: cell-based
Experimental: The antifungal activity of these compounds was evaluated according to CLSI guidelines ([16]).

Cryptococcus neoformans [12] = experiment: checkerboard drug interaction (FICI, MICc);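 as to all read-outs here: antifungal plus FPPS inhibitor pairs tested against Cryptococcus neoformans by simplified diagonal checkerboard screening, FICI computed under the Loewe additivity model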; assay type: cell-based; conditions: C. neoformans; for INH FD (MIC-MICc fold decrease): fold decrease of inhibitor MIC
Experimental: as §2

Candida glabrata [13] = experiment: MIC/MFC broth microdilution (CLSI); conditions: Nakaseomyces glabratus, CBS138;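 also: broth microdilution following CLSI M27-Ed4, MFC taken as the lowest drug level yielding no growth once MIC wells were subcultured on SDA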
Experimental: as §1

[14] = test system: Cryptococcus deuterogattii; experiment: MIC/MFC broth microdilution (CLSI); conditions: Cryptococcus deuterogattii;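 also: broth microdilution per CLSI M27-Ed4. MFC is the lowest concentration yielding no colonies when MIC broths are subcultured onto SDA plates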
Experimental: as §1

Saccharomyces cerevisiae [15] = experiment: checkerboard drug interaction (FICI, MICc);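 as to all read-outs here: simplified diagonal checkerboard screen pairing antifungals with FPPS inhibitors, FICI calculated under the Loewe additivity model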; assay type: cell-based; set-up: INH MICc / INH MICc (ITR:INH) / INH MICc (KET:INH) / INH MICc (FLC:INH): unit not given beside the values; conditions: S. cerevisiae; for INH FD (MIC-MICc fold decrease): fold decrease of inhibitor MIC
Candida albicans [16] = experiment: checkerboard drug interaction (FICI, MICc);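 as to all read-outs here: antifungal plus FPPS inhibitor combinations on Candida albicans tested by a simplified diagonal checkerboard screen, with FICI calculated under the Loewe additivity model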; assay type: cell-based; conditions: C. albicans; for INH FD (MIC-MICc fold decrease): fold decrease of inhibitor MIC
Experimental: as §2

Candida glabrata [17] = experiment: checkerboard drug interaction (FICI, MICc);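 as to all read-outs here: simplified diagonal checkerboard screen pairing antifungals with FPPS inhibitors, FICI calculated under the Loewe additivity model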; assay type: cell-based; conditions: C. glabrata; for INH FD (MIC-MICc fold decrease): fold decrease of inhibitor MIC
Experimental: as §2

Trichophyton rubrum [18] = experiment: checkerboard drug interaction (FICI, MICc);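 also: simplified diagonal checkerboard screen pairing azole antifungals with FPPS inhibitors, FICI calculated under the Loewe additivity model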; assay type: cell-based; conditions: T. rubrum
Experimental: as §2

[19] = FLC:INH combination, MIC of FLC in combination with the inhibitor
[20] = FLC:INH combination, MIC of the inhibitor in combination with FLC
[21] = FLC:INH combination, fold decrease of FLC MIC
[22] = ITR:INH combination, MIC of ITR in combination with the inhibitor
[23] = ITR:INH combination, MIC of the inhibitor in combination with ITR
[24] = ITR:INH combination, fold decrease of ITR MIC
[25] = KET:INH combination, MIC of KET in combination with the inhibitor
[26] = KET:INH combination, MIC of the inhibitor in combination with KET
[27] = KET:INH combination, fold decrease of KET MIC
[28] = Fractional Inhibitory Concentration Index, fluconazole + inhibitor
[29] = Fractional Inhibitory Concentration Index, itraconazole + inhibitor
[30] = Fractional Inhibitory Concentration Index, ketoconazole + inhibitor
[31] = MIC of the inhibitor in combination with fluconazole
[32] = MIC of the inhibitor in combination with itraconazole
[33] = MIC of the inhibitor in combination with ketoconazole
[34] = MIC-MICc fold decrease of fluconazole, negative = increase
[35] = MIC-MICc fold decrease of itraconazole, negative = increase
[36] = MIC-MICc fold decrease of ketoconazole, negative = increase
[37] = MIC-MICc fold decrease of the inhibitor, with fluconazole
[38] = MIC-MICc fold decrease of the inhibitor, with itraconazole
[39] = MIC-MICc fold decrease of the inhibitor, with ketoconazole

CCCCCCCCCCCN1CCC[C@H]1C(=O)N[C@@H](CC(=O)O)C(=O)O [PLA11]
< -4: FLC FD (MIC-MICc fold decrease) (Cryptococcus neoformans [12]; [21]) | ITR FD (MIC-MICc fold decrease) (Cryptococcus neoformans [12]; [24]) | KET FD (MIC-MICc fold decrease) (Candida albicans [16]; [27])
0.51: FICI (Aspergillus fumigatus [6]; ITR:INH combination)
4: KET MICc (Aspergillus fumigatus [6]; [25]) | INH MICc (ITR:INH) (Aspergillus flavus [7]; [32]) | INH FD (FLC:INH) (Aspergillus flavus [7]; [37]) | FLC FD (MIC-MICc fold decrease) (Saccharomyces cerevisiae [15]; [21]) | ITR FD (MIC-MICc fold decrease) (Saccharomyces cerevisiae [15]; [24]) | KET FD (MIC-MICc fold decrease) (Saccharomyces cerevisiae [15]; [27]) | INH MICc (Candida glabrata [17]; [20]) | FLC FD (MIC-MICc fold decrease) (Candida glabrata [17]; [21]) | ITR FD (MIC-MICc fold decrease) (Candida glabrata [17]; [24]) | KET FD (MIC-MICc fold decrease) (Candida glabrata [17]; [27])
> 128 µg/mL: MFC (Trichophyton rubrum [1]) | MIC (Trichophyton rubrum [1]) | MFC (Aspergillus flavus [3]) | MIC (Aspergillus flavus [3]) | MFC (Saccharomyces cerevisiae [4]) | MIC (Saccharomyces cerevisiae [4]) | MFC (Cryptococcus neoformans [5]) | MIC (Cryptococcus neoformans [5]) | MFC (Candida albicans [9]) | MIC (Candida albicans [9]) | MFC (Aspergillus fumigatus [10]) | MIC (Aspergillus fumigatus [10]) | MFC (eight fungal species [11]; across eight species, read-out: Geometric mean MFC) | MIC (eight fungal species [11]; geometric mean across eight species, read-out: GM fungal MIC) | MIC (eight fungal species [11]; read-out: Geometric mean MIC) | MFC (Candida glabrata [13]) | MIC (Candida glabrata [13]) | MFC [14] | MIC [14]
-4: FLC FD (MIC-MICc fold decrease) [8, 21] | ITR FD (MIC-MICc fold decrease) [8, 24] | KET FD (MIC-MICc fold decrease) (Cryptococcus neoformans [12]; [27]) | FLC FD (MIC-MICc fold decrease) (Candida albicans [16]; [21]) | ITR FD (MIC-MICc fold decrease) (Candida albicans [16]; [24])
0.5: KET MICc (Saccharomyces cerevisiae [15]; [25])
0.063: ITR MICc (Aspergillus fumigatus [6]; [22]) | ITR MICc (Saccharomyces cerevisiae [15]; [22])
55.4: GM fungal MICc (eight fungal species [2])
0.27: FICI (Candida glabrata [17]; ITR:INH combination) | FICI (Candida glabrata [17]; KET:INH combination)
128: FLC MICc (Aspergillus fumigatus [6]; [19]) | INH FD (MIC-MICc fold decrease) (Aspergillus fumigatus [6]; ITR:INH combination) | INH MICc (Aspergillus fumigatus [6]; [26]) | INH MICc [8, 23] | INH MICc [8, 26] | INH MICc (Cryptococcus neoformans [12]; [26]) | INH MICc (Candida albicans [16]; [26]) | INH FD (MIC-MICc fold decrease) (Candida glabrata [17]; ITR:INH combination) | INH FD (MIC-MICc fold decrease) (Candida glabrata [17]; KET:INH combination) | INH MICc (KET:INH) (Trichophyton rubrum [18]; [33])
32: INH MICc (Saccharomyces cerevisiae [15]; [23]) | INH FD (MIC-MICc fold decrease) (Saccharomyces cerevisiae [15]; KET:INH combination)
0.38: FICI (Saccharomyces cerevisiae [15]; ITR:INH combination)
1: FLC FD (MIC-MICc fold decrease) (Aspergillus fumigatus [6]; [21]) | INH FD (MIC-MICc fold decrease) (Aspergillus fumigatus [6]; FLC:INH combination) | KET FD (MIC-MICc fold decrease) (Aspergillus fumigatus [6]; [27]) | KET FD (KET:INH) (Aspergillus flavus [7]; [36]) | INH FD (KET:INH) (Aspergillus flavus [7]; [39]) | INH FD (MIC-MICc fold decrease) ([8]; FLC:INH combination) | FICI ([8]; KET:INH combination) | INH FD (MIC-MICc fold decrease) (Cryptococcus neoformans [12]; FLC:INH combination) | INH FD (MIC-MICc fold decrease) (Cryptococcus neoformans [12]; ITR:INH combination) | FLC MICc (Saccharomyces cerevisiae [15]; [19]) | INH FD (MIC-MICc fold decrease) (Candida albicans [16]; FLC:INH combination) | INH FD (MIC-MICc fold decrease) (Candida albicans [16]; ITR:INH combination) | ITR FD (ITR:INH) (Trichophyton rubrum [18]; [35]) | KET FD (KET:INH) (Trichophyton rubrum [18]; [36]) | INH FD (FLC:INH) (Trichophyton rubrum [18]; [37]) | INH FD (ITR:INH) (Trichophyton rubrum [18]; [38])
8: INH FD (MIC-MICc fold decrease) (Saccharomyces cerevisiae [15]; ITR:INH combination) | INH MICc (Saccharomyces cerevisiae [15]; [26])
256: INH MICc (Aspergillus fumigatus [6]; [20]) | INH MICc (KET:INH) (Aspergillus flavus [7]; [33]) | INH MICc [8, 20] | INH MICc (Cryptococcus neoformans [12]; [20]) | INH MICc (Cryptococcus neoformans [12]; [23]) | INH MICc (Candida albicans [16]; [20]) | INH MICc (Candida albicans [16]; [23]) | INH MICc (FLC:INH) (Trichophyton rubrum [18]; [31]) | INH MICc (ITR:INH) (Trichophyton rubrum [18]; [32])
≥4: FICI ([8]; FLC:INH combination) | FICI ([8]; ITR:INH combination) | FICI (Cryptococcus neoformans [12]; FLC:INH combination) | FICI (Cryptococcus neoformans [12]; ITR:INH combination) | FICI (Cryptococcus neoformans [12]; KET:INH combination) | FICI (Candida albicans [16]; FLC:INH combination) | FICI (Candida albicans [16]; ITR:INH combination) | FICI (Candida albicans [16]; KET:INH combination)
0.28: FICI (Saccharomyces cerevisiae [15]; KET:INH combination) | FICI (Candida glabrata [17]; FLC:INH combination)
16: INH MICc (Saccharomyces cerevisiae [15]; [20]) | INH FD (MIC-MICc fold decrease) (Saccharomyces cerevisiae [15]; FLC:INH combination)
0.75: FICI (FLC:INH) (Aspergillus flavus [7]; [28])
1.5: FICI (Aspergillus fumigatus [6]; KET:INH combination) | FICI (KET:INH) (Trichophyton rubrum [18]; [30])
-2: FLC FD (FLC:INH) (Trichophyton rubrum [18]; [34])
0.31: FICI (Saccharomyces cerevisiae [15]; FLC:INH combination)
64: INH MICc (FLC:INH) (Aspergillus flavus [7]; [31]) | INH FD (ITR:INH) (Aspergillus flavus [7]; [38]) | INH FD (MIC-MICc fold decrease) (Candida glabrata [17]; FLC:INH combination)
2: FICI (Aspergillus fumigatus [6]; FLC:INH combination) | INH MICc (Aspergillus fumigatus [6]; [23]) | ITR FD (MIC-MICc fold decrease) (Aspergillus fumigatus [6]; [24]) | INH FD (MIC-MICc fold decrease) (Aspergillus fumigatus [6]; KET:INH combination) | FICI (KET:INH) (Aspergillus flavus [7]; [30]) | FLC FD (FLC:INH) (Aspergillus flavus [7]; [34]) | ITR FD (ITR:INH) (Aspergillus flavus [7]; [35]) | INH FD (MIC-MICc fold decrease) ([8]; ITR:INH combination) | KET FD (MIC-MICc fold decrease) [8, 27] | INH FD (MIC-MICc fold decrease) ([8]; KET:INH combination) | INH FD (MIC-MICc fold decrease) (Cryptococcus neoformans [12]; KET:INH combination) | INH FD (MIC-MICc fold decrease) (Candida albicans [16]; KET:INH combination) | INH MICc (Candida glabrata [17]; [23]) | INH MICc (Candida glabrata [17]; [26]) | FICI (ITR:INH) (Trichophyton rubrum [18]; [29]) | INH FD (KET:INH) (Trichophyton rubrum [18]; [39])
0.52: FICI (ITR:INH) (Aspergillus flavus [7]; [29])
3: FICI (FLC:INH) (Trichophyton rubrum [18]; [28])
> 256 µg/mL: IC50 (HEK-293T cells)
